Laboratory results from patent publication US9533040B2, “Inhibition of human immunodeficiency virus integrase reaching dimer formation utilizing single-chain variable antibodies” (priority 2010, dated 2017).

What was measured:
HIV IN = HIV IN (Human immunodeficiency virus type 1 group M subtype B, UniProt P12497); conditions: previous studies; cited from earlier work
ASV IN = ASV IN (Rous sarcoma virus subgroup C, UniProt P03354, K1536E/R1446K/V1381A); conditions: previous studies; cited from earlier work
HIV IN (F181T) dimer = biological target: T1, HIV IN (F181T) dimer (Human immunodeficiency virus type 1 group M subtype B, UniProt P12497, F1328T); test: FRET multimerization assay (reaching dimer formation); type: binding; conditions: each at 1 μM; HIV IN (F181T) at 2 μM; relative to untreated control
T1 construct: made in house
Description: The effects of monoclonal antibodies and four small molecule inhibitors (each at 1 μM) are shown.
A multimerization assay based on fluorescence resonance energy transfer (FRET) between donor and acceptor dyes attached to C280 in HIV IN was used. The F181T substitution was introduced in order to monitor reaching dimer formation specifically (see Table 1 and FIGS. 9 and 11). One preparation was labeled with a donor fluorophore (Cy3) and a second with the acceptor (Cy5). Upon mixing (final conc. IN between 0.5 to 2 μM) and equilibration, the FRET efficiency obtained is consistent with the expected apparent distance of 60-65 Å in a reaching dimer. The Z′ factor of 0.7 obtained with this assay is in the “excellent” range for high throughput screening, and additional adjustments (e.g., use of alternative dye pairs, filter changes) may allow us to improve sensitivity even further. To validate the assay, the effects of monoclonal antibodies specific for the CTD (mAb33) or NTD (mAb17) of HIV IN were tested (FIG. 31). […] These preliminary results support the notion that compounds that either stabilize or block reaching dimer formation can result in inhibition of catalysis by IN.

ASV IN, sequence (P03354 1281-1566 V1381A/R1446K/K1536E): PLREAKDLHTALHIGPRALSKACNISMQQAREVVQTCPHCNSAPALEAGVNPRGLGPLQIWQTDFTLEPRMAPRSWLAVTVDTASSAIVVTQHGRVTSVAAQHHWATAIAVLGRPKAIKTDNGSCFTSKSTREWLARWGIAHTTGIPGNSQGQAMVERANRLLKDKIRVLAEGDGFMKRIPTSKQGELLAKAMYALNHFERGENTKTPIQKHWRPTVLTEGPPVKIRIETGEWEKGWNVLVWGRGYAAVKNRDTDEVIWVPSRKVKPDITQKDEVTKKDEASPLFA

Question: For 2BrNSA, which “inhibition of HIV IN” value (HIV IN) is on record?
Answer: robust inhibition

Question: And the “inhibition of ASV IN” value (ASV IN)?
Answer: robust inhibition

B1: mAb17: monoclonal antibody specific for the NTD of HIV IN; single chain Fv sequence SEQ ID NO:195 (protein, listed as Mus musculus)
scFv: MKYLLPTAAAGLLLLAAQPAMAMGHHHHHHHHHHSSGHIDDDDKHMDVWLTQTPLSLPVSLGDQASISCRSSQTFVHSDGNTYLEWYLQKPGQSPKLLIYKISNRFSGVPDRFSGSGSGTDFTLKISGVEAEDLGLYYCFQGSHVPFTFGSGTKLEIRRADAAPTVSIFPPSSKLGPGGGGSGGGGSGGGGSELGRSQVQLQQSGAELVRPGASVTLSCKASGYTFIEYEMHWVKQAPVHGLEWIGAVDPETGGTAYNQKFKGKAILTADKSSSTGYMELRSLTSESSAVYYCARQGLGYWGQGTLVTVSA
Question: With B1 as the molecule, how does the “effect on FRET-monitored IN self-association (reaching dimer formation)” value (HIV IN (F181T) dimer) read?
Answer: inhibit FRET-monitored self-association

B2: mAb33: monoclonal antibody specific for the CTD of HIV IN; single chain Fv sequence SEQ ID NO:194 (protein, listed as Mus musculus)
scFv: MKYLLPTAAAGLLLLAAQPAMAMGHHHHHHHHHHSSGHIDDDDKHMDIQMTQSPSSLSASLGGKVTITCKASQDIYKYIAWYQHKPGKGPRLLIHYTSTLQPGIPSRFSGSGSGRDYSFSISNLEPEDIATYYCLQYDNLWTFGGGTKLEIKRADAAPTVSIFPPSSKLGPGGGGSGGGGSGGGGSELGRSEVKLVESGGGLVKPGGSLKLSCAASGFSFSSYAMSWVRQTPEKRLEWVASISSGGNTYYPDSVKGRFTISRDNARNILYLQMSSLRSEDTAMYYCARLDTTVEGDWYFDVWGAGTTLTVSS
Question: With B2 as the molecule, how does the “effect on FRET-monitored IN self-association (reaching dimer formation)” value (HIV IN (F181T) dimer) read?
Answer: inhibit FRET-monitored self-association
